Experimental data as given in PMC3635830 (Biochemistry, 2013).

Biological target: tryptophan 2-monooxygenase (TMO) (Pseudomonas savastanoi, UniProt P06617)
Assay: X-ray crystal structure, […] Å
Settings: FAD-binding domain; IAM also bound

Sequence of tryptophan 2-monooxygenase (TMO) (P06617 whole entry): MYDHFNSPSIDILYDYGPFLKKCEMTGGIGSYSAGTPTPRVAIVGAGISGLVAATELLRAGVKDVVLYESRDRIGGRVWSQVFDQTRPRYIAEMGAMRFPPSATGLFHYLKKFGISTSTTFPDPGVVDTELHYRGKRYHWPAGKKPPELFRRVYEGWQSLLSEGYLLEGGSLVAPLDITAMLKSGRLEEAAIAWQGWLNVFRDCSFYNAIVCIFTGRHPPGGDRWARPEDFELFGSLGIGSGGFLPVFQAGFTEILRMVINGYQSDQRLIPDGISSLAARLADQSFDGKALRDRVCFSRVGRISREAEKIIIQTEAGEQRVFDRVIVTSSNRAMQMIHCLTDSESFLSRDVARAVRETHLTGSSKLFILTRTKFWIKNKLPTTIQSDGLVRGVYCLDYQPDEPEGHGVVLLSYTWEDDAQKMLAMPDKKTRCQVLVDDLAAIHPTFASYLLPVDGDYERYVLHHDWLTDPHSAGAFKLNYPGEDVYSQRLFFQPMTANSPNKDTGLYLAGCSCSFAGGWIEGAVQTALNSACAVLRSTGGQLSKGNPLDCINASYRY

Cc1cc2nc3c(=O)[nH]c(=O)nc-3n(C[C@H](O)[C@H](O)[C@H](O)COP(=O)(O)OP(=O)(O)OC[C@H]3O[C@@H](n4cnc5c(N)ncnc54)[C@H](O)[C@@H]3O)c2cc1C [FAD]
X-ray crystal structure, 1.95 Å: The FAD cofactor and the bound indole-3-acetamide occupy a large internal cavity
